From patent US20240307326A1, “DOSAGE FORMS OF MIRDAMETINIB” (SpringWorks Therapeutics, Inc., priority 2023, published 2024)

Legend:
[1] = Particle size of mirdametinib drug substance lots (laser diffraction particle sizing); type: physicochemical; settings: mirdametinib free base drug substance
Excerpt: As used herein, “D50” or “d50”, also known as the median diameter, corresponds to the value under which 50% of the particles has a lower volume diameter. “D90” or “d90” corresponds to the value under which 90% of the particles has a lower volume diameter. The particle size may be measured using wet standard laser diffraction particle sizing techniques known in the art. One example of an instrument to measure the particle size of the dry powders is the Mastersizer 3000, manufactured by Malvern Panalytical Ltd. (Malvern, UK). As particles are often non-spherical, it is difficult and complex to provide dimensional descriptions of these non-spherical particles. As used herein, “volume diameter” refers to diameter of a sphere with equal volume of the non-spherical particle.
(§1) Mirdametinib free base (Lots #1, 2, and 3) having the properties in the table below were prepared.

[2] = Bulk and tap density, Carr's Index of drug substance lots; type: physicochemical; settings: mirdametinib free base drug substance
Procedure: as §1

Row | D10 [1] [μm] | D50 [1] [μm] | D90 [1] [μm] | Bulk density [2] [g/mL] | Carr's Index [2] | Tap density [2] [g/mL] | SMILES
1 | 7.6 | 28.4 | 120.7 | 0.197 | 54.6 | 0.434 | O=C(NOC[C@H](O)CO)c1ccc(F)c(F)c1Nc1ccc(I)cc1F [Lot 2, N—((R)-2,3-dihydroxypropoxy)-3,4-difluoro-2-(2-fluoro-4-iodo-phenylamino)benzamide]
2 | 17.8 | 46.5 | 217.1 | – | – | – | O=C(NOC[C@H](O)CO)c1ccc(F)c(F)c1Nc1ccc(I)cc1F [Lot 3, N—((R)-2,3-dihydroxypropoxy)-3,4-difluoro-2-(2-fluoro-4-iodo-phenylamino)benzamide]
3 | 4.9 | 20.9 | 101.5 | 0.169 | 57.1 | 0.394 | O=C(NOC[C@H](O)CO)c1ccc(F)c(F)c1Nc1ccc(I)cc1F [Lot 1, N—((R)-2,3-dihydroxypropoxy)-3,4-difluoro-2-(2-fluoro-4-iodo-phenylamino)benzamide]
